Test results: US20050250819A1 (priority 2004, published 2005)

Test system: Type III protein secretion of the chimeric SopE‘-’Bla polypeptide (SPI1 type III protein secretion system)
Assay: Primary assay: Type III protein secretion of the chimeric SopE'-'Bla polypeptide by Salmonella enterica
Assay type: cell-based
Conditions: read-out: SopE IC50(μM)
Source text: Primary assay: Type III protein secretion of the chimeric SopE‘-’Bla polypeptide by Salmonella enterica. This procedure is a cell-based assay that measures the type III-dependent secretion by Salmonella enterica of a plasmid-encoded chimeric polypeptide whose synthesis can be regulated, and which is endowed with an enzymatic activity that can be monitored colorimetrically by hydrolysis of a substrate that is unable to penetrate into the bacterial cytoplasm within the time constraints of the reaction. Thus, the colormetric reaction is not influenced by SopE‘-’Bla polypeptide in the bacterial cytplasm. Instead, it effectively measures the amount of polypeptide that has been secreted from the S. enterica cytoplasm to the extracellular medium via type III system protein secretion.
The SopE‘-’Bla recombinant polypeptide consists of two functionally distinct domains spliced together. The N-terminus domain is encoded by a polynucleotide region specifying the signal for type III secretion of the SopE polypeptide of S. enterica, an effector of the SPI1 type III protein secretion system. The C-terminus domain of SopE‘-’Bla consists of a 263 amino acid peptide sequence that corresponds to the TEM-1 β-lactamase expressed by plasmid pBR322 but without its N-terminal signal sequence. The TEM-1 β-lactamase part of the SopE‘-’Bla chimeric polypeptide is used as a reporter enzyme. It is capable of hydrolyzing nitrocefin resulting in a product whose accumulation can be monitored by colorimetric detection. The secretion of the SopE‘-’Bla chimeric polypeptide from the cytoplasm to the extracellular medium is dependent on type III protein secretion.
For this procedure, cells grown under conditions known to favor a functional SPI1 secretion system are induced for expression of the SopE‘-’Bla protein and grown either in the presence or in the absence of putative inhibitors for determined time. Nitrocefin is then added to the various cultures and its hydrolysis are used for quantitation. An inhibitor of Type III protein secretion is generally a compound that reduces the signal of the enzymatic reaction by decreasing the amount of SopE‘-’Bla secreted into the extracellular medium.

| Compound | IC50 |
| --- | --- |
| O=C(NC(COCc1ccccc1)C(=O)O)/C(=C\c1cccc(Oc2ccc(Cl)cc2)c1)NC(=O)c1ccc(C(F)(F)F)cc1 (stereo in doubt) [Compound 31, (S)-3-Benzyloxy-2-[3-[3-(4-chlorophenoxy)phenyl]-2-(4-trifluoromethyl-benzoylamino)acryloylamino]propionic acid] | 7.7 µM |
| COc1ccc(/C=C(/NC(=O)c2ccc(-c3ccccc3)cc2)C(=O)N[C@@H](Cc2ccc(Cl)cc2)C(=O)O)cc1OC (stereo in doubt) [Compound 50, 2-[2-[(Biphenyl-4-carbonyl)amino]-3-(3,4-dimethoxyphenyl)acryloylamino]-3-(4-chlorophenyl)propionic acid] | 79.4 µM |
| O=C(O)[C@H](Cc1ccc(Cl)cc1)NC(=O)N(CCc1ccc(-c2ccccc2)cc1)Cc1ccc(Cl)c(Cl)c1 (stereo in doubt) [Compound 86, 2-[3-(2-Biphenyl-4-yl-ethyl)-3-(3,4-dichlorobenzyl)ureido]-3-(4-chlorophenyl)-propionic acid] | 1.1 µM |
| O=C(NCC1CCCO1)/C(=C\c1ccc(-c2ccccc2)cc1)NC(=O)c1ccc(C(F)(F)F)cc1 (stereo not drawn) [Compound 2, N-{2-Biphenyl-4-yl-1-[(tetrahydro-furan-2-yl-methyl)carbamyl]vinyl}-4-trifluoromethylbenzamide] | 69 µM |
| O=C(N[C@@H](CSCc1ccccc1)C(=O)O)/C(=C\c1cccc2ccccc12)NC(=O)c1ccc(C(F)(F)F)cc1 [Compound 3, (R)-3-Benzylsulfanyl-2-[3-naphthalen-1-yl-2-(4-trifluoromethylbenzoylamino)-acryloylamino]propionic acid] | 30.3 µM |
| O=C(NC(Cc1ccc(Cl)cc1)C(=O)O)/C(=C\c1cccc(C(F)(F)F)c1)CC(=O)c1ccc(-c2ccccc2)cc1 (stereo not drawn) [Compound 4, 2-[2-(2-Biphenyl-4-yl-2-oxoethyl)-3-(3-trifluoromethylphenyl)acryloylamino]-3-(4-chlorophenyl)propionic acid] | 1.1 µM |
| O=C(NC(Cc1ccc(Cl)cc1)C(=O)O)/C(=C\c1ccc(Cl)c(C(F)(F)F)c1)CC(=O)c1ccc(-c2ccccc2)cc1 (stereo not drawn) [Compound 5, 2-[2-(2-Biphenyl-4-yl-2-oxoethyl)-3-(4-chloro-3-trifluoromethylphenyl)-acryloylamino]-3-(4-chlorophenyl)propionic acid] | 0.8 µM |
| O=C(NN(Cc1ccc(-c2ccccc2)cc1)C(=O)N[C@@H](CSCc1ccccc1)C(=O)O)c1ccc(C(F)(F)F)cc1 [Compound 8, 4-Trifluoromethylbenzoic acid-N′-[(biphenyl-4-yl)methyl]-N′-[[[(2-benzylthio)-1-carboxyethyl]amino]carbonyl]hydrazide] | 10 µM |
| O=C(NN(Cc1cccc(Oc2ccccc2)c1)C(=O)N[C@@H](CSCc1ccccc1)C(=O)O)c1ccc(C(F)(F)F)cc1 [Compound 9, 4-Trifluoromethylbenzoic acid-N′-[(3-phenoxyphenyl)methyl]-N′-[[[(2-benzylthio)-1-carboxyethyl]amino]carbonyl]hydrazide] | 15 µM |
| O=C(NN(Cc1cccc(Oc2ccccc2)c1)C(=O)N[C@@H](COCc1ccccc1)C(=O)O)c1ccc(C(F)(F)F)cc1 [Compound 10, 4-Trifluoromethylbenzoic acid-N′-[(3-phenoxyphenyl)methyl]-N′-[[[(2-benzyloxy)-1-carboxyethyl]amino]carbonyl]hydrazide] | 22 µM |
| O=C(NN(Cc1ccc(OC(F)(F)F)cc1)C(=O)N[C@@H](CSCc1ccccc1)C(=O)O)c1ccc(C(F)(F)F)cc1 [Compound 11, 4-Trifluoromethylbenzoic acid-N′-[(4-trifluoromethoxyphenyl)methyl]-N′-[[[(2-benzylthio)-1-carboxyethyl]amino]carbonyl]hydrazide] | 49 µM |
| O=C(NN(Cc1ccc(Oc2ccccc2)cc1)C(=O)N[C@@H](CSCc1ccccc1)C(=O)O)c1ccc(C(F)(F)F)cc1 [Compound 12, 4-Trifluoromethylbenzoic acid-N′-[(4-phenoxyphenyl)methyl]-N′-[[[(2-benzylthio)-1-carboxyethyl]amino]carbonyl]hydrazide] | 12.5 µM |
| O=C(O)C[C@H](Cc1ccc(Cl)cc1)NC(=O)/C(=C\c1ccc(-c2ccccc2)cc1)NC(=O)c1ccc(C(F)(F)F)cc1 [Compound 13, (S)-3-[3-Biphenyl-4-yl-2-(4-trifluoromethylbenzoylamino)acryloylamino]-4-(4-chlorophenyl)butyric acid] | 5.2 µM |
| O=C(N[C@@H](COCc1ccccc1)C(=O)O)C(=Cc1ccc(Oc2ccccc2)cc1)NC(=O)c1ccc(C(F)(F)F)cc1 [Compound 15, (S)-3-Benzyloxy-2-[3-(4-phenoxyphenyl)-2-(4-trifluoromethylbenzoylamino)-acryloylamino]propionic acid] | 11 µM |
| O=C(N[C@@H](Cc1ccc(Cl)cc1)C(=O)O)/C(=C\c1ccc(Oc2ccccc2)cc1)NC(=O)c1ccc(C(F)(F)F)cc1 [Compound 16, (S)-3-(4-Chlorophenyl)-2-[3-(4-phenoxyphenyl)-2-(4-trifluoromethylbenzoylamino)-acryloylamino]propionic acid] | 4.9 µM |
| O=C(N[C@H](COCc1ccccc1)C(=O)O)/C(=C\c1ccc(-c2ccccc2)cc1)NC(=O)c1ccc(C(F)(F)F)cc1 [Compound 24, (R)-3-Benzyloxy-2-[3-biphenyl-4-yl-2-(4-trifluoromethylbenzoylamino)-acryloylamino]propionic acid] | 12.5 µM |
| O=C(N[C@@H](Cc1ccc(Cl)cc1)C(=O)O)/C(=C\c1ccc(-c2ccccc2)cc1)NC(=O)c1ccc(C(F)(F)F)cc1 [Compound 25, (S)-2-[3-Biphenyl-4-yl-2-(4-trifluoromethylbenzoylamino)acryloylamino]-3-(4-chlorophenyl)propionic acid] | 6 µM |
| O=C(N[C@@H](Cc1ccc(Cl)cc1)C(=O)O)/C(=C\c1cccc(C(F)(F)F)c1)NC(=O)c1ccc(Cl)cc1 [Compound 27, (S)-2-[2-(4-Chlorobenzoylamino)-3-(3-trifluoromethylphenyl)acryloylamino]-3-(4-chlorophenyl)propionic acid] | 87 µM |
| O=C(N[C@H](Cc1ccc(Cl)cc1)C(=O)O)/C(=C\c1cccc(C(F)(F)F)c1)NC(=O)c1ccc(Cl)cc1 [Compound 28, (R)-2-[2-(4-Chlorobenzoylamino)-3-(3-trifluoromethylphenyl)acryloylamino]-3-(4-chlorophenyl)propionic acid] | 86 µM |
| O=C(N[C@@H](COCc1ccccc1)C(=O)O)/C(=C\c1ccc(Cl)c(Cl)c1)NC(=O)c1ccc(Cl)cc1 [Compound 29, (S)-3-Benzyloxy-2-[2-(4-chlorobenzoylamino)-3-(3,4-dichlorophenyl)-acryloylamino]propionic acid] | 70 µM |
| CC(C)c1ccc(/C=C(/NC(=O)c2ccc(C(F)(F)F)cc2)C(=O)N[C@@H](COCc2ccccc2)C(=O)O)cc1 [Compound 32, (S)-3-Benzyloxy-2-[3-(4-isopropylphenyl)-2-(4-trifluoromethylbenzoylamino)-acryloylamino]propionic acid] | 34.8 µM |
| O=C(N[C@H](Cc1ccc(Cl)cc1)C(=O)O)/C(=C\c1cccc(C(F)(F)F)c1)NC(=O)c1ccc(OC(F)(F)F)cc1 [Compound 36, (R)-3-(4-Chlorophenyl)-2-[2-(4-trifluoromethoxybenzoylamino)-3-(3-trifluoromethylphenyl)acryloylamino]propionic acid] | 21.6 µM |
| O=C(N[C@@H](Cc1ccc(Cl)cc1)C(=O)O)/C(=C\c1cccc(C(F)(F)F)c1)NC(=O)c1ccc(OC(F)(F)F)cc1 [Compound 37, (S)-3-(4-Chlorophenyl)-2-[2-(4-trifluoromethoxybenzoylamino)-3-(3-trifluoromethylphenyl)acryloylamino]propionic acid] | 25 µM |
| O=C(N[C@@H](CSCc1ccccc1)C(=O)O)/C(=C\c1ccc(Br)cc1)NC(=O)c1ccc(C(F)(F)F)cc1 [Compound 41, (R)-3-Benzylsulfanyl-2-[3-(4-bromophenyl)-2-(4-trifluoromethylbenzoylamino)-acryloylamino]propionic acid] | 48 µM |
| CN(C(=O)/C(=C\c1cccc(C(F)(F)F)c1)NC(=O)c1ccc(-c2ccccc2)cc1)[C@H](Cc1ccc(Cl)cc1)C(=O)O [Compound 42, (R)-2-{[2-[(Biphenyl-4-carbonyl)amino]-3-(3-trifluoromethylphenyl)acryloyl]-methylamino}-3-(4-chlorophenyl)propionic acid] | 15 µM |
| O=C(N[C@@H](CSCc1ccccc1)C(=O)O)/C(=C\c1cccc(Oc2ccccc2)c1)NC(=O)c1ccc(Cl)cc1 [Compound 43, (R)-3-Benzylsulfanyl-2-[2-(4-chlorobenzoylamino)-3-(3-phenoxyphenyl)-acryloylamino]propionic acid] | 34.2 µM |
| O=C(N[C@@H](CSCc1ccccc1)C(=O)O)/C(=C\c1ccc2ccccc2c1)NC(=O)c1ccc(Br)cc1 [Compound 45, (R)-3-Benzylsulfanyl-2-[2-(4-bromobenzoylamino)-3-naphthalen-2-yl-acryloylamino]propionic acid] | 81.6 µM |
